Experiments:
[1] = test system: bleomycin (BLM)-induced scleroderma mouse model
Protocol: An eight-to-ten-week-old female C57BL/6 mouse was injected subcutaneously with 150 μl of bleomycin (dissolved in physiological saline at 1 mg/ml) or with 150 μl of physiological saline as a control on the shaved back once a day for 6 weeks on alternate days. […] For each group, the body weights of the mice before the start of the test and at the time of the tissue collection (6 weeks later) were measured and compared. A Student's t-test was used for statistics. Four mice are used for each group. […] Mouse skin tissue for HE staining was collected with a scalpel and a knife. The skin tissue was fixed with 4% paraformaldehyde, and HE-stained slides were prepared from the paraffin block. A representative stained image of each group was shown (FIG. 4b). • c. For the dermal thickness, the distance between the epidermis-dermis boundary and the subcutaneous fatty tissue was measured using HE staining. For statistics, a parametric multiple comparison test by the Tukey-Kramer method was performed. Four mice were used for each group. […] In order to compare the amounts of collagen in the skin tissues, the skins were collected using a 4 mm Derma punch centering on the bleomycin-injected site on the back skin of the mice. For the measurement of the amount of collagen, Sircol Soluble Collagen Assay Kit (#S1000, Funakoshi Co., Ltd.) was used. The amount (μg) of collagen in the skin tissue was graphed using four mice for each group. For statistics, the Tukey-Kramer method was used.

[2] = test system: InMyoFib human colon myofibroblast cell line; assay: Immunoblot study of HPH-15 on TGF-β1-stimulated InMyoFib cells; format: cell-based; conditions: InMyoFib cells stimulated with TGF-β1 (5 ng/ml) and HPH-15 for 24 hours
Source text: An InMyoFib human colon myofibroblast cell line, which reproduces an inflammatory bowel disease, was used. The culture condition was as follows: culture medium SmBM with 5% fetal bovine serum (FBS), antibiotics, and growth factors (insulin, hFGF-B, hEGF, FBS, and gentamicin/amphotericin-B). Cells at 10 to 17 passages were used.

Human dermal fibroblasts = assay: Immunoblot study of HPH-15 on TGF-β-treated human dermal fibroblasts; format: cell-based; conditions: after 2 ng/mL TGF-β for 24 hours, FIG. 3
Source text: Collagen was observed by immunoblot.

## CC(C)(C)SCCNC(=S)c1cccc(C(=S)NCCSC(C)(C)C)n1 [HPH-15]
[1]; HPH-15 dose of 50 mg/kg/day or more, oral, 4 weeks, HE staining, FIGS. 4b, c
  dermal thickness increased by bleomycin: significantly reduced
[1]; each dose 50, 100, 200, 300 mg/kg/day oral for 4 weeks, 6 weeks after the start of the test
  systemic condition of the mice: kept well
[1]; each dose 50, 100, 200, 300 mg/kg/day oral for 4 weeks, 6 weeks after the start of the test, FIG. 4a
  body weight at skin collection compared with before the start of the test: no significant decrease in body weight
[2]; FIG. 1
  amount of phosphorylated Smad (P-Smad): reduced by the HPH-15 treatment in a dose-dependent manner
[2]; FIG. 2
  amount of collagen I: reduced by the HPH-15 treatment in a dose-dependent manner
Human dermal fibroblasts; 5 μM HPH-15, 48 hours
  expression of collagen: suppressed
Human dermal fibroblasts; 10 μM HPH-15, 48 hours
  expression of collagen: suppressed

Source: patent US12138251B2, “Fibrosis drug” (SCIENCE FARM LTD., priority 2019, dated 2024)
